Reference: PubChem BioAssay (NCI)
“And” between values parts separate entries of the source, which are not always exact repeats. Identical values can stand only once.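 1) Cells in 96-well plates. 2) Compound, 48 h, 5 concentrations. 3) Linear interpolation between surrounding doses. 4) Unreached endpoint = highest concentration. Abbreviation: GI50, concentration required for 50% inhibition of growth. TGI: total growth inhibition.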

Experiments:
Test in all cases: NCI tumour cell line growth inhibition, 48 h
[1] = system: OVCAR-3 ovarian
[2] = system: HCC-2998 colon
[3] = system: HCT-116 colon
[4] = system: COLO 205 colon
[5] = system: HOP-92 NSCLC
[6] = system: SF-268 CNS
[7] = system: CAKI-1 renal
[8] = system: UO-31 renal
[9] = system: MOLT-4 leukemia

COc1ccc(-c2cc(=O)c3ccc(O)cc3o2)c(OC)c1OC was tested, and the TGI [1] was > 100 µM, the TGI [2] was > 100 µM and the TGI [3] was > 100 µM. For the same compound, the TGI [4] was > 100 µM, the TGI [5] was > 100 µM and the TGI [6] was > 100 µM. The TGI [7] was > 100 µM.

With COc1ccccc1NC(=O)CC(=O)n1nc(C)c(N=Nc2ccccc2C(=O)O)c1C the TGI [1] was > 100 µM, the TGI [2] was > 100 µM and the TGI [3] was > 100 µM. The TGI [4] was > 100 µM, the TGI [6] was > 100 µM and the TGI [8] was > 100 µM. The TGI [7] was > 100 µM and the TGI [9] was > 100 µM.

For O=C(N/C(=C\c1cc(Cl)ccc1Cl)c1nc2[nH]c(=S)[nH]c(=O)c2[nH]1)c1ccccc1, the TGI [1] was > 100 µM, the TGI [2] was 30.7 µM and the TGI [3] was 21.3 µM. For the same compound, the TGI [4] was > 100 µM, the TGI [5] was > 75.1 µM and the TGI [6] was > 100 µM. For the same compound, the TGI [8] was > 76.4 µM, the TGI [7] was > 100 µM and the TGI [9] was > 80.8 µM.

With O=C(CSC(=S)N1CCCCC1)Nc1nc2c(s1)CCCC2 the TGI [2] was > 100 µM, the TGI [3] was 32.2 µM and the TGI [4] was > 100 µM. The TGI [5] was 94.3 µM, the TGI [6] was > 100 µM and the TGI [8] was > 100 µM. It also gave a TGI [9] of 47.8 µM.

In the case of COc1ccc(C2=CSc3cc(Cl)c(C)cc3S(=O)(=O)N2C(C)=O)cc1, the GI50 [1] is reported as 15.8 µM, the TGI [1] is reported as 41.4 µM and the GI50 [2] is reported as 27.1 µM. It also gave a TGI [2] of 69.5 µM, a GI50 [3] of 21.3 µM and a TGI [3] of 52.5 µM. For the same compound, the GI50 [4] was 38.5 µM, the TGI [4] was > 100 µM and the GI50 [5] was 21.9 µM. The TGI [5] was > 100 µM, the GI50 [6] was 29.1 µM and the TGI [6] was > 100 µM. The GI50 [8] was 51.2 µM, the TGI [8] was > 100 µM and the GI50 [7] was 11.5 µM. The TGI [7] was 32.9 µM, the GI50 [9] was 2.13 µM and the TGI [9] was > 100 µM.

For Oc1ccc(Cl)cc1-c1cc(-c2ccccc2Cl)[nH]n1, the GI50 [1] was 2.37 µM, the TGI [1] was > 100 µM and the GI50 [2] was 2.86 µM. For the same compound, the TGI [2] was 17.4 µM, the GI50 [3] was 4.6 µM and the TGI [3] was > 100 µM. The GI50 [4] was 27.3 µM, the TGI [4] was > 100 µM and the GI50 [6] was 7.71 µM. The TGI [6] was > 100 µM, the GI50 [8] was 3.77 µM and the TGI [8] was > 100 µM. For the same compound, the GI50 [7] was 2.87 µM, the TGI [7] was > 100 µM and the GI50 [9] was 5.38 µM. The TGI [9] was > 100 µM.

O=[N+]([O-])c1cnc(Sc2ccncn2)s1 showed a GI50 [1] of 1.74 µM, a TGI [1] of 3.16 µM and a GI50 [2] of 5.46 µM. It also gave a TGI [2] of 10.7 µM, a GI50 [3] of 1.84 µM and a TGI [3] of 3.33 µM. It also gave a GI50 [4] of 1.75 µM, a TGI [4] of 3.35 µM and a GI50 [5] of 1.99 µM. For the same compound, the TGI [5] was 4.4 µM, the GI50 [6] was 2.65 µM and the TGI [6] was 7.29 µM. The GI50 [8] was 1.75 µM, the TGI [8] was 3.2 µM and the GI50 [7] was 1.64 µM. The TGI [7] was 3.07 µM, the GI50 [9] was 2 µM and the TGI [9] was 5.04 µM.

Work on CN(C)CCCNC1=C(Cl)C(=O)c2ccccc2C1=O yielded a GI50 [1] of 1.69 µM, a TGI [1] of 3.17 µM and a GI50 [2] of 1.96 µM. It also gave a TGI [2] of 3.45 µM, a GI50 [3] of 2.28 µM and a TGI [3] of 6.04 µM. The GI50 [4] was 1.9 µM, the TGI [4] was 3.45 µM and the GI50 [5] was 2.86 µM. For the same compound, the TGI [5] was 12.3 µM, the GI50 [6] was 4.88 µM and the GI50 [8] was 12.4 µM. The TGI [8] was 27 µM, the GI50 [7] was 7.14 µM and the TGI [7] was 20.7 µM. It also gave a GI50 [9] of 3.02 µM and a TGI [9] of 8.27 µM.

CC1=C(C(=O)Nc2ccc(F)c(Cl)c2)C(c2ccc(Cl)cc2)NC(=O)N1 (stereo unspecified) gave a GI50 [1] of 17.8 µM, a TGI [1] of 38.4 µM and a GI50 [2] of 14.6 µM. The TGI [2] was 27.7 µM, the GI50 [3] was 12.8 µM and the TGI [3] was 25.4 µM. The GI50 [4] was 37.5 µM, the TGI [4] was > 100 µM and the GI50 [5] was 11.8 µM. The TGI [5] was 26.6 µM, the GI50 [6] was 22.1 µM and the TGI [6] was 73.4 µM. For the same compound, the GI50 [8] was 15.1 µM, the TGI [8] was 30.1 µM and the GI50 [7] was 21 µM. It also gave a TGI [7] of 71.2 µM.

In the case of CCOC(=O)COc1cccc2c1C(=O)CCO2, the TGI [1] is reported as > 100 µM, the TGI [2] is reported as > 100 µM and the TGI [3] is reported as > 100 µM. For the same compound, the TGI [4] was > 100 µM, the TGI [6] was > 100 µM and the TGI [8] was > 100 µM. The TGI [7] was > 100 µM and the TGI [9] was > 100 µM.

O=[S@@]1Nc2ccc(Br)cc2S1 was tested, and the TGI [1] was > 100 µM, the TGI [3] was > 100 µM and the TGI [5] was > 100 µM. The TGI [6] was > 100 µM, the TGI [8] was 7.43 µM and the TGI [7] was > 100 µM. The TGI [9] was > 100 µM.

CCCCCCCC(=O)SCC/C=C/[C@@H]1CC(=O)NCc2cccc(n2)C2=N[C@@](C)(CS2)C(=O)N[C@@H](C(C)C)C(=O)N1 gave a GI50 [1] of 0.402 µM, a TGI [1] of 9.27 µM and a GI50 [2] of 1.02 µM. The TGI [2] was 7.48 µM, the GI50 [3] was 0.166 µM and the TGI [3] was 5.09 µM. The GI50 [4] was 0.468 µM, the TGI [4] was 1.62 µM and the GI50 [5] was 0.481 µM. For the same compound, the TGI [5] was 9.31 µM, the GI50 [6] was 2.28 µM and the TGI [6] was > 33.3 µM. The GI50 [8] was 4.54 µM, the TGI [8] was > 33.3 µM and the GI50 [7] was 16.9 µM. The TGI [7] was > 33.3 µM, the GI50 [9] was 1.01 µM and the TGI [9] was > 33.3 µM.

For CN(C)c1ccc(-c2cc(-c3ccc(Nc4nc(Nc5ccc(Cl)cc5)nc(Nc5ccc(Cl)cc5)n4)cc3)no2)cc1, the GI50 [1] was 3.42 µM, the TGI [1] was 8.96 µM and the GI50 [2] was 7.37 µM. It also gave a TGI [2] of 96.7 µM, a GI50 [3] of 2.84 µM and a TGI [3] of 11.8 µM. It also gave a GI50 [4] of 2.89 µM, a TGI [4] of 16 µM and a GI50 [5] of 2.69 µM. For the same compound, the TGI [5] was 10.6 µM, the GI50 [6] was 5.02 µM and the TGI [6] was 21.6 µM. For the same compound, the GI50 [8] was 2.69 µM, the TGI [8] was 17.7 µM and the GI50 [7] was 2.8 µM. The TGI [7] was > 100 µM, the GI50 [9] was 1.32 µM and the TGI [9] was 3.38 µM.

In the case of COC(=O)[C@@H](C)C[C@H](Cc1ccc(F)cc1)NC(=O)c1csc([C@@H](C[C@H](C(C)C)N(C)C(=O)[C@@H](NC(=O)[C@H]2CCCCN2C)C(C)C)OC(C)=O)n1, the TGI [1] is reported as 0.00216 µM and 0.012 µM, the TGI [2] is reported as > 16.7 µM and the TGI [3] is reported as 0.225 µM. For the same compound, the GI50 [4] was 0.00641 µM, the TGI [4] was 0.0651 µM and the GI50 [5] was 0.215 µM and 0.0783 µM. The TGI [5] was 11.8 µM, the GI50 [6] was 0.00441 µM and 0.00923 µM and the TGI [6] was > 16.7 µM. The TGI [8] was > 16.7 µM, the GI50 [9] was 0.00245 µM and 0.00876 µM and the TGI [9] was > 16.7 µM.

With CNC(=O)c1ccccc1Nc1nc(Nc2ccc(N3CCOCC3)cc2OC)ncc1Cl the GI50 [1] was 1.73 µM, the TGI [1] was > 53.3 µM and the GI50 [2] was 0.636 µM. The TGI [2] was > 43.2 µM, the GI50 [3] was 0.537 µM and the TGI [3] was > 35.3 µM. For the same compound, the GI50 [4] was 0.103 µM, the TGI [4] was 0.59 µM and the GI50 [5] was 0.0571 µM. The TGI [5] was 1.03 µM, the GI50 [6] was 1.57 µM and the TGI [6] was > 100 µM. For the same compound, the GI50 [8] was 0.4 µM, the TGI [8] was 4.44 µM and the GI50 [7] was 0.165 µM. The TGI [7] was 1.58 µM, the GI50 [9] was 1.85 µM and the TGI [9] was > 63.7 µM.

For CC1=C(C#N)C23C(=O)c4ccccc4C(O)=C2C(=O)C=CC3(O)N1Cc1ccccc1 (stereo unspecified), the GI50 [1] was 32 µM, the TGI [1] was > 100 µM and the GI50 [2] was > 100 µM. For the same compound, the TGI [2] was > 100 µM, the GI50 [3] was 34.8 µM and the TGI [3] was > 100 µM. The GI50 [4] was 16.6 µM, the TGI [4] was 34.4 µM and the GI50 [5] was 39.4 µM. For the same compound, the TGI [5] was > 100 µM, the GI50 [6] was 40.3 µM and the TGI [6] was > 100 µM. For the same compound, the GI50 [8] was 18 µM, the TGI [8] was > 100 µM and the GI50 [7] was 43.2 µM. The TGI [7] was > 100 µM.

O=C(O)c1cc(C(=O)O)cc(N2C(=O)c3ccccc3C2=O)c1 was tested, and the TGI [1] was > 100 µM, the TGI [2] was > 100 µM and the TGI [3] was > 100 µM. The TGI [4] was > 100 µM, the TGI [5] was > 100 µM and the TGI [6] was > 100 µM. For the same compound, the TGI [8] was > 100 µM and the TGI [7] was > 100 µM.
